Data reported in patent publication US20240317748A1, “CARBONYL SUBSTITUTED DIAZASPIRO COMPOUNDS AND ITS USE” (BIONOVA PHARMACEUTICALS (SHANGHAI) LIMITED, priority 2021, published 2024).

Experiments:
[1] = tested on: MOLM13 cells; assay: Cell proliferation assay (CellTiter-Glo), MOLM13; type: cell-based, human; settings: Homo sapiens, MOLM-13, 288 h; MOLM13 (MLL-AF9), 12 days incubation; read-out: Cell antiproliferation assay MOLM13 IC50
Description: (§1) The antiproliferative activity of test compounds was assessed in human leukemia cell lines. The cell line MV4-11, MOLM13 and OCI-AML3, which expresses the MLL fusion protein MLL-AF4, MLL-AF9 and carry the NPM1c gene mutation, respectively, were tested. HL-60 was used as a control cell line containing two MLL wildtype alleles in order to exclude compounds that display general cytotoxic effect. MV4-11 cells were cultured in IMDM supplemented with 10% FBS, MOLM13 and OCI-AML3 cells were cultured in RPMI1640 supplemented with 20% FBS, and HL-60 cells were cultured in IMDM supplemented with 20% FBS. Corresponding cells (MV4-11, MOLM13, OCI-AML3 or HL-60 cell line) were seeded in 100 uL medium per well in 96-well plate (white wall with clear bottom, tissue culture treated, Corning, Cat. No. CLS3903; Lot.No. 30419025). Plates were placed in the CO2 incubator overnight. Compounds solution (2 mM starting, 4-fold serial dilution) were prepared and added to the wells containing 100 μL of the culture medium with HPD300 according to the plate map and centrifuge at 1000 rpm for 1 minutes (200-fold dilution totally). MV4-11, MOLM13, OCI-AML3 and HL-60 cells were incubated with the compounds for 4, 12, 5 and 4 days, respectively, under 5% CO2 at 37° C., respectively. 100 μL of CellTiter-Glo reagent (Promega, Cat. No. G7573, Lot. No. 0000416710) was added to the assay plate by Multidrop Combi instrument, contents were mixed for 10 minutes on an orbital shaker to induce cell lysis. After incubation at room temperature for 10 mins, clear bottom with white back seal was pasted and luminescence with Envision was read.

[2] = tested on: MV-4-11 cells; assay: Cell proliferation assay (CellTiter-Glo), MV-4-11; type: cell-based, human; settings: Homo sapiens, MV4-11, 96 h; MV-4-11 (MLL-AF4), 4 days incubation; read-out: Cell antiproliferation assay MV-4-11 IC50
Description: as §1

[3] = target: T1, Menin-MLL1 (Homo sapiens, UniProt O00255); assay: Menin-MLL1 inhibition assay (fluorescence polarization, Menin protein + FAM-MLL peptide); type: binding; settings: Menin (2-610) isoform 2, FAM-labelled MLL peptide, mP readout; read-out: Biochemical assay Menin-MLL1 IC50
T1 construct: Menin (2-610) isform2; purchased ChemPartner 2020111101
T1 sequence (O00255 2-610): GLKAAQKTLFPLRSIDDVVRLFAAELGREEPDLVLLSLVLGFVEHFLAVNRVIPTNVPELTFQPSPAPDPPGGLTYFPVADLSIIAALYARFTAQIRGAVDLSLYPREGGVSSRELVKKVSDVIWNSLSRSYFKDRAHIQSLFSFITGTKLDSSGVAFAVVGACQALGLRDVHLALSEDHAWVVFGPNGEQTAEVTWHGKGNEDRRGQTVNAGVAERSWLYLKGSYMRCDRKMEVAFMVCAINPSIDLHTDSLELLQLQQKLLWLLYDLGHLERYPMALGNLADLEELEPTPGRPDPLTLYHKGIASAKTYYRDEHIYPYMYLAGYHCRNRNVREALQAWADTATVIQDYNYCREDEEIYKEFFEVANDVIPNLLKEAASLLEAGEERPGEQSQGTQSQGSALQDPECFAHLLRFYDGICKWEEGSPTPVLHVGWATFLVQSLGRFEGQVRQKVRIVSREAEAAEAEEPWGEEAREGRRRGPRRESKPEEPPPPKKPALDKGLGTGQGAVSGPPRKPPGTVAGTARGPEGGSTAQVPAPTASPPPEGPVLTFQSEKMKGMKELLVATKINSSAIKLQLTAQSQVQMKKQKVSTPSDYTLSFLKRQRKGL
Description: 1× assay bu9ffer (Tris 7.5 50 mM, NaCl 50 mM, DTT 1 mM, Tween-20 0.01%) was prepared and test compounds solution (10 mM in DMSO, Sigma, Cat. No. 34869) were transferred to assay plate (384-well plate, Perkin Elmer, Cat. No. 6007279) by Echo. The final fraction of DMSO is 1%. 20 nM of Menin protein (Menin (2-610) isform2, ChemPartner, Cat. No. 2020111101) in 1× assay buffer was added to prepare 2× enzyme solution. Then 10 nM of MLL-peptide (Ac-SRWRFPARPGTGRR-Ahx-Ahx-K(FAM)-NH2, GL Biochem (Shanghai)), Cat. No. 833831/202009220104) in 1× assay buffer was added to prepare 2× substrate solution. 10 μL of 2× enzyme solution was transferred to assay plate or 10 μL of 1× assay buffer for low control group. 10 μL of 2× substrate solution was added to each well to start reaction. mP data on Envision (Ex480/Em535(s), Em535(p)) was collected.
Compound potencies were determined by first calculating % inhibition at each compound concentration according to equation 1:
Inhibition %=(Max−Signal)/(Max−Min)*100 (Equation 1)
Y=Bottom+(Top-Bottom)/(1+(IC50/X)[…]), where Y is % inhibition and X is compound concentration (Equation 2)

[4] = tested on: HL-60 cells; assay: Cell proliferation assay (CellTiter-Glo), HL-60 control line; type: cell-based, human; settings: Homo sapiens, 96 h, 4 days incubation; for IC50: HL-60 control line (MLL wildtype), read-out: Cell antiproliferation assay HL-60 IC50; for inhibition at 10 µM: HL-60 control line, read-out: HL-60 (Pct of inhibition at 10 μM)
Description: as §1

[5] = tested on: OCI-AML3 cells; assay: Cell proliferation assay (CellTiter-Glo), OCI-AML3; type: cell-based, human; settings: Homo sapiens, OCI-AML-3, 120 h; OCI-AML3 (NPM1c mutation), 5 days incubation; read-out: Cell antiproliferation assay OCI-AML3 IC50
Description: as §1

## N#Cc1ccc(-c2cc(F)ccc2Oc2nncnc2N2CC3(CCN(C(=O)[C@H]4NC[C@@H]5CCC[C@@H]54)CC3)C2)c(C2CC2)n1 [Example 90]
[1]
  IC50: 6.1 nM
[2]
  IC50: 2.6 nM
[3]
  IC50: 2.8 nM

## CCN(C(=O)c1cc(F)ccc1Oc1cncnc1N1CC2(CCN(C(=O)[C@H]3NC[C@@H]4C[C@@H]43)CC2)C1)C(C)C [Example 34]
[4]
  IC50: > 10000 nM
  inhibition at 10 µM: -12.2%
[2]
  IC50: 18 nM
[3]
  IC50: 4.1 nM

## CC[C@H]1CCN[C@@H]1C(=O)N1CCC2(CC1)CN(c1ncnnc1Oc1ccc(F)cc1C(=O)N(CC)C(C)C)C2 [Example 70]
[1]
  IC50: 49.5 nM
[5]
  IC50: 52.7 nM
[4]
  IC50: > 10000 nM
  inhibition at 10 µM: 1%
[2]
  IC50: 9.5 nM
[3]
  IC50: 4.6 nM

## CC(C)N(CCO)C(=O)c1cc(F)ccc1Oc1cncnc1N1CC2(CCN(C(=O)[C@@H]3C[C@@H](F)CN3)CC2)C1 [Example 49]
[4]
  IC50: > 10000 nM
  inhibition at 10 µM: -8.4%
[2]
  IC50: 57.3 nM
[3]
  IC50: 3.6 nM

## CC[C@@H]1[C@@H](C(=O)N2CCC3(CC2)CN(c2ncnnc2Oc2ccc(F)cc2C(=O)N(CC)C(C)C)C3)NC[C@@H]1F [Example 86]
[1]
  IC50: 199 nM
[5]
  IC50: 282 nM
[4]
  IC50: > 10000 nM
  inhibition at 10 µM: 10.8%
[2]
  IC50: 76 nM
[3]
  IC50: 3.6 nM

## O=C([C@H]1NC[C@@H]2C[C@@H]21)N1CCC2(CC1)CN(c1ncnnc1Oc1ccc(F)cc1-c1cncnc1C1CC1)C2 [Example 80]
[4]
  IC50: > 10000 nM
  inhibition at 10 µM: 0%
[2]
  IC50: 39 nM
[3]
  IC50: 4.3 nM

## CCN(C(=O)c1cc(F)ccc1Oc1cncnc1N1CC2(CCN(C(=O)[C@@H]3C[C@@H](C)CN3)CC2)C1)C(C)C [Example 47]
[4]
  IC50: > 10000 nM
  inhibition at 10 µM: -10.6%
[2]
  IC50: 15.9 nM
[3]
  IC50: 3.7 nM

## CC(C)N(C(=O)c1cc(F)ccc1Oc1nncnc1N1CC2(CCN(C(=O)[C@@H]3C[C@@H](F)CN3)CC2)C1)C(C)C [Example 56]
[1]
  IC50: 68.3 nM
[5]
  IC50: 132 nM
[4]
  IC50: > 10000 nM
  inhibition at 10 µM: -12.2%
[2]
  IC50: 16.8 nM
[3]
  IC50: 3.7 nM

## CC(C)n1ncc(Cl)c1-c1cc(F)ccc1Oc1cncnc1N1CC2(CCN(C(=O)[C@@H]3C[C@@H](F)CN3)CC2)C1 [Example 58]
[4]
  IC50: > 10000 nM
  inhibition at 10 µM: -4.5%
[2]
  IC50: 27.1 nM
[3]
  IC50: 3.5 nM

## CCN(C(=O)c1cc(F)ccc1Oc1nncnc1N1CC2(CCN(C(=O)[C@H]3NCc4ccccc43)CC2)C1)C(C)C [Example 85]
[4]
  IC50: > 10000 nM
  inhibition at 10 µM: -2.8%
[2]
  IC50: 76.7 nM
[3]
  IC50: 5.5 nM

## CC(C)N(C(=O)c1cc(F)ccc1Oc1nncnc1N1CC2(CCN(C(=O)[C@H]3NCC[C@@H]3C)CC2)C1)C(C)C [Example 64]
[1]
  IC50: 20.2 nM
[4]
  IC50: > 10000 nM
  inhibition at 10 µM: 11.2%
[2]
  IC50: 9.6 nM
[3]
  IC50: 1.9 nM

## O=C([C@H]1NC[C@@H]2CCC[C@@H]21)N1CCC2(CC1)CN(c1ncnnc1Oc1ccc(F)cc1-c1ccc(=O)[nH]c1C1CC1)C2 [Example 106]
[2]
  IC50: 9.4 nM
[3]
  IC50: 2 nM

## CCN(C(=O)c1cc(Cl)ccc1Oc1cncnc1N1CC2(CCN(C(=O)[C@@H]3C[C@@H](F)CN3)CC2)C1)C(C)C [Example 19]
[2]
  IC50: 40.2 nM
[3]
  IC50: 5 nM

## CCN(C(=O)c1cc(F)ccc1Oc1cncnc1N1CC2(CCN(C(=O)[C@H]3NCc4ccccc43)CC2)C1)C(C)C [Example 33]
[2]
  IC50: 19.3 nM
[3]
  IC50: 4.5 nM

## CCN(C(=O)c1cc(F)ccc1Oc1nncnc1N1CC2(CCN(C(=O)[C@@H]3NC[C@@H](C)[C@H]3C)CC2)C1)C(C)C [Example 93]
[2]
  IC50: 457 nM
[3]
  IC50: 24.8 nM

## CCN(C(=O)c1cc(F)ccc1Oc1cncnc1N1CC2(CCN(C(=O)[C@@H]3C[C@@H](OC(F)F)CN3)CC2)C1)C(C)C [Example 10]
[2]
  IC50: 238 nM
[3]
  IC50: 8.3 nM

## CC(C)N(CC(F)F)C(=O)c1cc(F)ccc1Oc1nncnc1N1CC2(CCN(C(=O)[C@H]3NC[C@@H]4CCC[C@@H]43)CC2)C1 [Example 105]
[2]
  IC50: 17.1 nM
[3]
  IC50: 4 nM

## CC1(C)[C@@H]2[C@@H](C(=O)N3CCC4(CC3)CN(c3ncnnc3Oc3ccc(F)cc3-c3ccc(C#N)nc3C3CC3)C4)NC[C@@H]21 [Example 95]
[2]
  IC50: 5.5 nM
[3]
  IC50: 2.5 nM

## [2H]C([2H])(C)N(C(=O)c1cc(F)ccc1Oc1nncnc1N1CC2(CCN(C(=O)[C@H]3NC[C@@H]4CCC[C@@H]43)CC2)C1)C(C)C [Example 102]
[2]
  IC50: 4.6 nM
[3]
  IC50: 5.4 nM

## N#Cc1ccc(-c2cc(F)ccc2Oc2nncnc2N2CC3(CCN(C(=O)[C@@H]4C[C@@H](F)CN4)CC3)C2)c(C2CC2)c1 [Example 67]
[1]
  IC50: 61.1 nM
[4]
  IC50: > 10000 nM
  inhibition at 10 µM: 23.8%
[2]
  IC50: 20.5 nM
[3]
  IC50: 2.8 nM

## CCN(C(=O)c1cc(F)ccc1Oc1cncnc1N1CC2(CCN(C(=O)[C@H]3NCC[C@H]3C)CC2)C1)C(C)C [Example 40]
[2]
  IC50: 26.2 nM
[3]
  IC50: 5.4 nM

## CCN(C(=O)c1cc(F)ccc1Oc1nncnc1N1CC2(CCN(C(=O)[C@@H]3CC(CC#N)CN3)CC2)C1)C(C)C (stereo partly drawn) [Example 61]
[2]
  IC50: 153 nM
[3]
  IC50: 6.1 nM

## CCN(C(=O)c1cc(F)ccc1Oc1nncnc1N1CC2(CCN(C(=O)[C@H]3NC[C@@H]4CC(F)(F)C[C@@H]43)CC2)C1)C(C)C (single isomer, unassigned) [Example 98d]
[2]
  IC50: 29.5 nM
[3]
  IC50: 2.3 nM

## C[C@@H]1COCCN1C(=O)c1cc(F)ccc1Oc1cncnc1N1CC2(CCN(C(=O)[C@@H]3C[C@@H](F)CN3)CC2)C1 [Example 51]
[2]
  IC50: 221 nM
[3]
  IC50: 4.3 nM

## CCN(C(=O)c1cc(C#N)ccc1Oc1cncnc1N1CC2(CCN(C(=O)[C@@H]3C[C@@H](F)CN3)CC2)C1)C(C)C [Example 17]
[2]
  IC50: 317 nM
[3]
  IC50: 25.3 nM

## CCN(C(=O)c1cc(F)ccc1Oc1nncnc1N1CC2(CCN(C(=O)[C@@H]3NCC[C@H]3C3CC3)CC2)C1)C(C)C [Example 100b]
[2]
  IC50: 284 nM
[3]
  IC50: 11.7 nM

## CCN(C(=O)c1cc(F)ccc1Oc1cncnc1N1CC2(CCN(C(=O)[C@@H]3CCCCN3)CC2)C1)C(C)C [Example 4]
[2]
  IC50: 33.1 nM
[3]
  IC50: 5 nM

## CCN(C(=O)c1cc(F)ccc1Oc1nnc(Cl)nc1N1CC2(CCN(C(=O)[C@H]3NC[C@@H]4C[C@@H]43)CC2)C1)C(C)C [Example 91]
[2]
  IC50: 248 nM
[3]
  IC50: 7.3 nM
